Key:
NCM460 = assay: Cytotoxicity assay (MTT), normal colonic epithelial cell NCM460; format: cell-based, human; conditions: for IC50: MTT, 48 h exposure
Protocol: (§1) Five human tumor cell lines (HL-60, MM231, A-549, HEP3B, and SW480), together with one non-cancerous cell line, the human normal colonic epithelial cell NCM460, were used in the cytotoxic activity assay. All cells were cultured in DMEM or RPMI-1640 medium (HyClone, Logan, UT, USA), supplemented with 10% fetal bovine serum (HyClone) at 37 °C in a humidified atmosphere with 5% CO2. The cell survival assay was performed using the MTT method. Briefly, 100 μL suspended cells at an initial density of 1 × 10^5 cells/mL were seeded into each well of the 96-well culture plates and allowed to adhere for 12 h before addition of the test compounds. […] After incubation, culture supernatants were removed and exchanged with medium containing 0.5 mg/mL MTT. Then, after 4 h incubation in darkness at 37 °C, the medium was removed, and cells were added with 100 μL dimethyl sulfoxide. The absorbance at 570 nm was measured and data are expressed as averages of three replicates. The value of inhibition was calculated by using the following formula: % inhibition = (1 − ODtreated/ODcontrol) × 100. The IC50 values were calculated by using a standard dose-response curve fitting with Prism (version 5.0, GraphPad Software, La Jolla, CA, USA).

HEP3B = assay: Cytotoxicity assay (MTT), HEP3B; format: cell-based, human; conditions: HEP3B (hepatic cancer), 48 h exposure
Protocol: as §1

MM231 = assay: Cytotoxicity assay (MTT), MM231; format: cell-based, human; conditions: MM231 (breast cancer), 48 h exposure
Protocol: as §1

SW480 = assay: Cytotoxicity assay (MTT), SW480; format: cell-based, human; conditions: SW480 (colon cancer), 48 h exposure
Protocol: as §1

HL-60 = assay: Cytotoxicity assay (MTT), HL-60; format: cell-based; conditions: Homo sapiens, HL-60 (acute leukemia), 48 h exposure
Protocol: as §1

A-549 = assay: Cytotoxicity assay (MTT), A-549; format: cell-based, human; conditions: 48 h exposure
Protocol: as §1

[1] = Homo sapiens, A549, A-549 (lung cancer)

With `CC1=CC(=O)C[C@@H]2O[C@@H]3C=C(C)[C@@]45Oc6c(C)c(C)oc(=O)c6[C@@H]4O[C@H](O)[C@]54CC[C@@H]1[C@@]2(C)[C@@H]34` [compound 4, brevione H] the IC50 (NCM460; Homo sapiens) was over 40 µM, the IC50 (HEP3B; Homo sapiens) was over 40 µM and the IC50 (MM231; Homo sapiens) was over 40 µM. It also gave an IC50 (SW480; Homo sapiens) of over 40 µM, an IC50 (HL-60) of over 40 µM and an IC50 (A-549; [1]) of over 40 µM.
`C=CC(C)(C)C12CC3C(=O)NC(C(C)C)C(=O)N3C1N(C(C)=O)c1ccccc12` (stereo not drawn) [compound 5, brevicompanine G] was tested, and the IC50 (NCM460; Homo sapiens) was over 40 µM, the IC50 (HEP3B; Homo sapiens) was over 40 µM and the IC50 (MM231; Homo sapiens) was over 40 µM. It also gave an IC50 (SW480; Homo sapiens) of over 40 µM, an IC50 (HL-60) of 21.8 ± 3.48 µM and an IC50 (A-549; [1]) of 18.4 ± 2.15 µM.
For `CC(=O)O[C@H]1C(=O)[C@@]2(C)[C@H]([C@H](OC(=O)c3ccccc3)[C@]3(O)C[C@H](OC(=O)[C@H](O)[C@@H](NC(=O)c4ccccc4)c4ccccc4)C(C)=C1C3(C)C)[C@]1(OC(C)=O)CO[C@@H]1C[C@@H]2O` [Paclitaxel, paclitaxel, reference compound], the IC50 (NCM460; Homo sapiens) was under 0.008 µM, the IC50 (HEP3B; Homo sapiens) was under 0.008 µM and the IC50 (MM231; Homo sapiens) was under 0.008 µM. For the same compound, the IC50 (SW480; Homo sapiens) was under 0.008 µM, the IC50 (HL-60) was under 0.008 µM and the IC50 (A-549; [1]) was under 0.008 µM.
Work on `CC1=C[C@H](O)[C@@H]2[C@@]3(C)CCC(=O)C(C)(C)[C@@H]3CC[C@@]2(C)[C@]12Cc1c(c(C)c(C)oc1=O)O2` [compound 3, brevione J] yielded an IC50 (NCM460; Homo sapiens) of over 40 µM, an IC50 (HEP3B; Homo sapiens) of over 40 µM and an IC50 (MM231; Homo sapiens) of over 40 µM. The IC50 (SW480; Homo sapiens) was over 40 µM, the IC50 (HL-60) was 25.6 ± 3.84 µM and the IC50 (A-549; [1]) was over 40 µM.
Compound `CC1=CC(O)C2C3(C)C(O)CC(=O)C(C)(C)C3CCC2(C)C12Cc1c(c(C)c(C)oc1=O)O2` (stereo not drawn) [compound 1, brevione O] has an IC50 (NCM460; Homo sapiens) of over 40 µM, an IC50 (HEP3B; Homo sapiens) of over 40 µM and an IC50 (MM231; Homo sapiens) of over 40 µM. The IC50 (SW480; Homo sapiens) was over 40 µM, the IC50 (HL-60) was over 40 µM and the IC50 (A-549; [1]) was over 40 µM.
With `N.N.[Cl][Pt][Cl]` [Cis-platin, cis-platin, reference compound] the IC50 (NCM460) was 0.85 ± 0.07 µM, the IC50 (HEP3B) was 2.96 ± 0.22 µM and the IC50 (MM231) was 3.84 ± 0.25 µM. For the same compound, the IC50 (SW480) was 1.42 ± 0.11 µM and the IC50 (A-549; A-549 (lung cancer)) was 2.79 ± 0.36 µM.
For `CC1=C[C@H](O)[C@@H]2[C@@]3(C)C=CC(=O)C(C)(C)[C@@H]3CC[C@@]2(C)[C@]12Cc1c(c(C)c(C)oc1=O)O2` [compound 2, brevione I], the IC50 (NCM460; Homo sapiens) was over 40 µM, the “cytotoxic activity against the NCM460 cell” value (NCM460; result in words) was “no cytotoxic activity” and the IC50 (HEP3B; Homo sapiens) was 5.5 ± 0.67 µM. It also gave an IC50 (MM231; Homo sapiens) of over 40 µM, an IC50 (SW480; Homo sapiens) of 21.2 ± 2.72 µM and an IC50 (HL-60) of 4.92 ± 0.65 µM. The IC50 (A-549; [1]) was 8.6 ± 1.36 µM.

Source: PMC5923397, “A New Breviane Spiroditerpenoid from the Marine-Derived Fungus Penicillium sp. TJ403-1” (Marine Drugs, 2018)
